The values below are quoted from earlier work in article PMC9516332 (Frontiers in Oncology, 2022).

Read-outs that look alike come from different tables or passages of the source.

Holding throughout (details): cited from earlier work
The target in series [1] is panel of 255 wild-type kinases (Homo sapiens, UniProt P68400).
Series [2] deals with panel of 255 wild-type kinases (Homo sapiens, UniProt Q8IY84).
The target of series [3] is panel of 255 wild-type kinases (Homo sapiens, UniProt P29597).
Series [4] has as its target panel of 255 wild-type kinases (Homo sapiens, UniProt P19784).
Series [5] has as its target panel of 255 wild-type kinases (Homo sapiens, UniProt P07947).
Series [6] deals with panel of 255 wild-type kinases (Homo sapiens, UniProt Q00535).
In series [7] the target is T1, panel of 255 wild-type kinases (Homo sapiens, UniProt Q13237).
T1 sequence (Q13237 1-762): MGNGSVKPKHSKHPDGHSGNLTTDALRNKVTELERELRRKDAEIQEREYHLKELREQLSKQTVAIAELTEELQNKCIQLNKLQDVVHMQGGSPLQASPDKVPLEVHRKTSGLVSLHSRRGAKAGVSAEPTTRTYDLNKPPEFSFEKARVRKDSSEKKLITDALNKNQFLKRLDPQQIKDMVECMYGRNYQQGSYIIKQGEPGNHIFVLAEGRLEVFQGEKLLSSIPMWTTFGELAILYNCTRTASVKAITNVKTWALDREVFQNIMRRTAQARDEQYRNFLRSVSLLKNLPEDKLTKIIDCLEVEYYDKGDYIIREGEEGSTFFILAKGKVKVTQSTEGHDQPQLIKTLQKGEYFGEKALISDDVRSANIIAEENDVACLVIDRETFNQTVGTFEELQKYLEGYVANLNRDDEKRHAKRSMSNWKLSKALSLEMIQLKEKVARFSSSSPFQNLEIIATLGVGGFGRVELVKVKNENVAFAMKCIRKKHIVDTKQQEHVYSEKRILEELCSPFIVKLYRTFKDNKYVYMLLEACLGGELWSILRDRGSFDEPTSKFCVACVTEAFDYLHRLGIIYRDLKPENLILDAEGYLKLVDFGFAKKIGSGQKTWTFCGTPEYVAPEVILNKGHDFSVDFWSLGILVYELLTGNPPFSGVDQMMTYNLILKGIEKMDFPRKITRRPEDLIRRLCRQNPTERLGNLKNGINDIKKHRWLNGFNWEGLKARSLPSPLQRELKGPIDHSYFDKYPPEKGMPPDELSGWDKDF

For series [8], the target named is T2, panel of 255 wild-type kinases (Homo sapiens, UniProt Q8IW41).
T2 sequence (Q8IW41 1-473): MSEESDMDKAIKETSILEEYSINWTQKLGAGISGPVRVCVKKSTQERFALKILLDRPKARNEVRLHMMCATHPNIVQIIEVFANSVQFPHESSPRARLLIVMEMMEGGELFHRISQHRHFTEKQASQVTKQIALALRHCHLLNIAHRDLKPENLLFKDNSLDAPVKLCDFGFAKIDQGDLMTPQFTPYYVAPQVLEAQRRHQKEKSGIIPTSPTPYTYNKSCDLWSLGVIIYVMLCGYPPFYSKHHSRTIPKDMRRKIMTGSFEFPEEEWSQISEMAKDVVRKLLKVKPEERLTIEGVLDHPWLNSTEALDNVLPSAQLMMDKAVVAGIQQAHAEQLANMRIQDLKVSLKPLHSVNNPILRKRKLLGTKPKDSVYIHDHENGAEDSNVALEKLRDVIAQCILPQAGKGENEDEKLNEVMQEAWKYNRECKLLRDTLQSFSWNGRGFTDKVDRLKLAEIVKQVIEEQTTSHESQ

The target in series [9] is T3, panel of 255 wild-type kinases (Homo sapiens, UniProt Q08881).
T3 sequence (Q08881 1-620): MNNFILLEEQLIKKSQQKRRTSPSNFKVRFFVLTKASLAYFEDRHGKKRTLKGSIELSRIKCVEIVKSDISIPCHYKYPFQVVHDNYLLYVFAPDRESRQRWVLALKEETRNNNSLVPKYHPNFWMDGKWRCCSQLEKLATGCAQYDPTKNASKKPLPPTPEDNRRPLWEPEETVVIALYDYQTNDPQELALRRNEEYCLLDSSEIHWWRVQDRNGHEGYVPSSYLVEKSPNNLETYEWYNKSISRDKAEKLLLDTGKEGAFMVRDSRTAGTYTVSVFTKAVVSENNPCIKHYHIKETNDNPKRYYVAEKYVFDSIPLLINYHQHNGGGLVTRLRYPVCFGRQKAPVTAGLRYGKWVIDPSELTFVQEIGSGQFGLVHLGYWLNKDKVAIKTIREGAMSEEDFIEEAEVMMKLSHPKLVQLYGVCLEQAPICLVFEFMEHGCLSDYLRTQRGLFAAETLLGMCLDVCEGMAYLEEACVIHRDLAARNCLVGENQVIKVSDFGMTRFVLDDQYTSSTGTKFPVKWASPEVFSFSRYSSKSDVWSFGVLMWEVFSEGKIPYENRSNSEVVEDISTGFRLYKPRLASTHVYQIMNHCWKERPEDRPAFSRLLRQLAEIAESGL

In series [10] the target is panel of 255 wild-type kinases (Homo sapiens, UniProt P08069).
Where [11] appears, read: kinase CK2α1/β, 1 µmol/L single concentration, ref DOI: 10.1158/1535-7163.MCT-18-0877.
The mark [12] stands for this setting: NIM1K, 1 µmol/L single concentration, ref DOI: 10.1158/1535-7163.MCT-18-0877.
[13] abbreviates: kinase TYK2, 1 µmol/L single concentration, ref DOI: 10.1158/1535-7163.MCT-18-0877.
The mark [14] stands for this setting: kinase CK2α2/β, 1 µmol/L single concentration, ref DOI: 10.1158/1535-7163.MCT-18-0877.
[15] abbreviates: kinase YES, 1 µmol/L single concentration, ref DOI: 10.1158/1535-7163.MCT-18-0877.
The mark [16] stands for this setting: CDK5/p25 kinase assay, 1 µmol/L single concentration, ref DOI: 10.1158/1535-7163.MCT-18-0877.
The mark [17] stands for this setting: CGK2 kinase assay, 1 µmol/L single concentration, ref DOI: 10.1158/1535-7163.MCT-18-0877.
Where [18] appears, read: MAPKAPK5, 1 µmol/L single concentration, ref DOI: 10.1158/1535-7163.MCT-18-0877.
[19] abbreviates: kinase ITK, 1 µmol/L single concentration, ref DOI: 10.1158/1535-7163.MCT-18-0877.
Where [20] appears, read: kinase IGF1R, 1 µmol/L single concentration, ref DOI: 10.1158/1535-7163.MCT-18-0877.

Turning to `O=C(c1ccc(F)c(F)c1Nc1ccc(I)cc1F)N1CC(O)([C@@H]2CCCCN2)C1` [cobimetinib], the “%-inhibition at 1 µmol/L, CK2α1/β” value in [1] (setting [11]) is -9%. In series [2] (setting [12]), the “%-inhibition, NIM1K” value was -3.67%. The “%-inhibition at 1 µmol/L, TYK2” value in series [3] (setting [13]) is 6.35%. Also, the “%-inhibition at 1 µmol/L, CK2α2/β” value in series [4] (setting [14]) was -6%. In addition, the “%-inhibition at 1 µmol/L, YES” value in series [5] (setting [15]) is recorded as -0.706%. Besides, the “%-inhibition CDK5/p25” value in series [6] (setting [16]) is reported as -7%. Besides, the “%-inhibition CGK2” value in series [7] (setting [17]) is listed as 0.273%. Besides, the “%-inhibition, MAPKAPK5” value in [8] (setting [18]) was -1%. In addition, the “%-inhibition at 1 µmol/L, ITK” value in series [9] (setting [19]) is on record as 4%. Further, in [10] (setting [20]), the “%-inhibition at 1 µmol/L, IGF1R” value is recorded as 6%.
Regarding `CC#CC(=O)N1CCC[C@H]1c1nc(-c2ccc(C(=O)Nc3ccccn3)cc2)c2c(N)nccn12` [acalabrutinib], in series [1] (setting [11]), the “%-inhibition at 1 µmol/L, CK2α1/β” value is 5.34%. Further, the “%-inhibition, NIM1K” value in series [2] (setting [12]) is -7%. The “%-inhibition at 1 µmol/L, TYK2” value in series [3] (setting [13]) is reported as 13%. In addition, the “%-inhibition at 1 µmol/L, CK2α2/β” value in series [4] (setting [14]) is listed as 10%. The “%-inhibition at 1 µmol/L, YES” value in series [5] (setting [15]) was 22%. In series [6] (setting [16]), the “%-inhibition CDK5/p25” value is given as -19%. In [7] (setting [17]), the “%-inhibition CGK2” value is on record as 1.55%. Moreover, in series [8] (setting [18]), the “%-inhibition, MAPKAPK5” value is -1.87%. Moreover, the “%-inhibition at 1 µmol/L, ITK” value in [9] (setting [19]) is 0.871%. The “%-inhibition at 1 µmol/L, IGF1R” value in series [10] (setting [20]) is 0.466%.
As to `COc1cc(N2CCC(N3CCN(C)CC3)CC2)ccc1Nc1ncc(Cl)c(Nc2ccccc2P(C)(C)=O)n1` [brigatinib], in series [1], the “%-inhibition at 1 µmol/L, CK2α1/β” value is 8.51%. In addition, the “%-inhibition, NIM1K” value in series [2] is recorded as 3%. Moreover, in [3], the “%-inhibition at 1 µmol/L, TYK2” value is reported as 23%. Also, the “%-inhibition at 1 µmol/L, CK2α2/β” value in series [4] was -4%. Besides, the “%-inhibition at 1 µmol/L, YES” value in series [5] was 102%. For the same molecule, in [6], the “%-inhibition CDK5/p25” value is on record as 40%. The “%-inhibition CGK2” value in series [7] is on record as 37%. In addition, the “%-inhibition, MAPKAPK5” value in [8] is given as 3.41%. Besides, in [9], the “%-inhibition at 1 µmol/L, ITK” value was 95%. Moreover, the “%-inhibition at 1 µmol/L, IGF1R” value in series [10] is listed as 99%.
